# Literature values, collected in patent US20040131544A1, “In vivo imaging” (priority 1999, published 2004).
# Settings: background statement; Doze, et al., Nuclear Medicine and Biology 27:315-319 (2000)
smiles,measurement,value
CC(C)NCC(O)COc1cccc2[nH]c3ccccc3c12 (stereo not shown) [carazolol],adverse properties (mutagenicity / toxicity),not toxic
